Measurements taken from US20250388605A1, “HETEROBIFUNCTIONAL COMPOUNDS AND METHODS OF TREATING DISEASE” (Halda Therapeutics OpCo, Inc., priority 2022, published 2025).

Columns and labels:
BRD4-BD2 = biological target: T1, BRD4-BD2 (Homo sapiens, UniProt O60885); assay: Binding affinity to BRD4-BD2 (bromoKdELECT assay); conditions: 11-point 3-fold dilution series
T1 construct: made in house; host or cells: T7 phage grown in an E. coli host derived from the BL21 strain

VCaP cells = assay: Cellular growth inhibition assay for VCaP cells, CellTiter-Glo; type: cell-based, human; conditions: 72 hours
Outline: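 GI50 values come from four-parameter curve fits of luminescence data normalized to a zero baseline. Compound, in medium with 0.5% DMSO, was added one day after plating and left for 72 h before CellTiter-Glo 2.0 addition.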

BRD4-BD1 = biological target: T2, BRD4-BD1 (Homo sapiens, UniProt O60885); assay: Binding affinity to BRD4-BD1 (bromoKdELECT assay); conditions: 11-point 3-fold dilution series
T2 construct: made in house; host or cells: T7 phage grown in an E. coli host derived from the BL21 strain

| SMILES | Kd (BRD4-BD2) | GI50 (VCaP cells; Homo sapiens) | Kd (BRD4-BD1) | GI50 (VCaP cells) |
| --- | --- | --- | --- | --- |
| CCS(=O)(=O)Nc1ccc(Oc2ccc(F)c(OCCOC3CCN(c4ncc(C(=O)N[C@H]5C(C)(C)[C@H](Oc6ccc(C#N)c(Cl)c6)C5(C)C)cn4)CC3)c2F)c(-c2cn(C)c(=O)c3[nH]ccc23)c1 [Compound I-65] | < 50 nM | < 500 nM | 500 to 2500 nM | – |
| Cn1cc(-c2ccccc2Oc2cccc(N3CC(N4CCN(c5ncc(C(=O)N[C@H]6C(C)(C)[C@H](Oc7ccc(C#N)c(Cl)c7)C6(C)C)cn5)CC4)C3)c2F)c2cc[nH]c2c1=O [Compound I-94] | 50 to 500 nM | > 3000 nM | 500 to 2500 nM | – |
| CCS(=O)(=O)c1ccc(OC(CCCCN2CCN(c3ncc(C(=O)NC4C(C)(C)C(Oc5ccc(C#N)c(Cl)c5)C4(C)C)cn3)CC2)C2CC2)c(-c2cn(C)c(=O)c3[nH]ccc23)c1 (stereo not drawn) [Compound I-223, N-[3-(3-chloro-4-cyano-phenoxy)-2,2,4,4-tetramethyl-cyclobutyl]-2-[4-[5-cyclopropyl-5-[4-ethylsulfonyl-2-(6-methyl-7-oxo-1H-pyrrolo[2,3-c]pyridin-4-yl)phenoxy]pentyl]piperazin-1-yl]pyrimidine-5-carboxamide] | < 50 nM | < 500 nM | < 50 nM | – |
| CCS(=O)(=O)Nc1ccc(Oc2cccc(OCCOCCOC3CCN(c4ncc(C(=O)N[C@H]5C(C)(C)[C@H](Oc6ccc(C#N)c(Cl)c6)C5(C)C)cn4)CC3)c2)c(-c2cn(C)c(=O)c3[nH]ccc23)c1 [Compound I-13] | < 50 nM | < 500 nM | 500 to 2500 nM | – |
| CCS(=O)(=O)Nc1ccc(Oc2cccc(OCCN(C)c3ncc(C(=O)N[C@H]4C(C)(C)[C@H](Oc5ccc(C#N)c(Cl)c5)C4(C)C)cn3)c2)c(-c2cn(C)c(=O)c3[nH]ccc23)c1 [Compound I-1, N-((1r, 3r)-3-(3-chloro-4-cyanophenoxy)-2,2,4,4-tetramethylcyclobutyl)-2-((2-(3-(4-(ethylsulfonamido)-2-(6-methyl-7-oxo-6,7-dihydro-1H-pyrrolo[2,3-c]pyridin-4-yl)phenoxy)phenoxy)ethyl)(methyl)amino)pyrimidine-5-carboxamide] | < 50 nM | < 500 nM | 50 to 500 nM | – |
| CCS(=O)(=O)Nc1ccc(Oc2ccc(OCC3CCN(c4ncc(C(=O)N[C@H]5C(C)(C)[C@H](Oc6ccc(C#N)c(Cl)c6)C5(C)C)cn4)CC3)cc2)c(-c2cn(C)c(=O)c3[nH]ccc23)c1 [Compound I-138] | 500 to 2500 nM | – | > 2500 nM | < 500 nM |
| Cn1cc(-c2cc(C(C)(C)O)ccc2Oc2cccc(N3CC(OC4CCN(c5ncc(C(=O)N[C@H]6C(C)(C)[C@H](Oc7ccc(C#N)c(Cl)c7)C6(C)C)cn5)CC4)C3)c2F)c2cc[nH]c2c1=O [Compound I-190] | 50 to 500 nM | – | 500 to 2500 nM | < 500 nM |
| CCS(=O)(=O)c1ccc(OCC(CCCN2CCN(c3ncc(C(=O)NC4C(C)(C)C(Oc5ccc(C#N)c(Cl)c5)C4(C)C)cn3)CC2)C2CC2)c(-c2cn(C)c(=O)c3[nH]ccc23)c1 (stereo not drawn) [Compound I-231, N-[3-(3-chloro-4-cyano-phenoxy)-2,2,4,4-tetramethyl-cyclobutyl]-2-[4-[4-cyclopropyl-5-[4-ethylsulfonyl-2-(6-methyl-7-oxo-1H-pyrrolo[2,3-c]pyridin-4-yl)phenoxy]pentyl]piperazin-1-yl]pyrimidine-5-carboxamide] | < 50 nM | < 500 nM | < 50 nM | – |
| Cn1cc(-c2cc(C(C)(C)O)ccc2Oc2cccc(CCOC3CCN(c4ncc(C(=O)N[C@H]5C(C)(C)[C@H](Oc6ccc(C#N)c(Cl)c6)C5(C)C)cn4)CC3)c2)c2cc[nH]c2c1=O [Compound I-193] | < 50 nM | – | > 2500 nM | < 500 nM |
| Cn1cc(-c2cc(C(C)(C)O)ccc2Oc2ccc(CCC3CCN(c4ncc(C(=O)N[C@H]5C(C)(C)[C@H](Oc6ccc(C#N)c(Cl)c6)C5(C)C)cn4)CC3)cc2)c2cc[nH]c2c1=O [Compound I-203] | > 2500 nM | 1500 to 3000 nM | > 2500 nM | – |
| Cn1cc(-c2cc(C(C)(C)O)ccc2Oc2cccc(CCCN3CCN(c4ncc(C(=O)N[C@H]5C(C)(C)[C@H](Oc6ccc(C#N)c(Cl)c6)C5(C)C)cn4)CC3)c2F)c2cc[nH]c2c1=O [Compound I-143] | < 50 nM | < 500 nM | 50 to 500 nM | – |
| Cn1cc(-c2cc(C(C)(C)O)ccc2Oc2ccc(CCOC3CCN(c4ncc(C(=O)N[C@H]5C(C)(C)[C@H](Oc6ccc(C#N)c(Cl)c6)C5(C)C)cn4)CC3)cc2)c2cc[nH]c2c1=O [Compound I-194] | < 50 nM | 500 to 1500 nM | > 2500 nM | – |
| CCS(=O)(=O)Nc1ccc(Oc2cccc(OCCOC3CCN(c4ncc(C(=O)N[C@H]5C(C)(C)[C@H](Oc6ccc(C#N)c(Cl)c6)C5(C)C)cn4)CC3)c2)c(-c2cn(C)c(=O)c3c2ccn3C)c1 [Compound I-121] | > 2500 nM | < 500 nM | > 2500 nM | – |
| CCS(=O)(=O)Nc1ccc(Oc2cccc(OCCOCCOCCOCCOCCOC3CCN(c4ncc(C(=O)N[C@H]5C(C)(C)[C@H](Oc6ccc(C#N)c(Cl)c6)C5(C)C)cn4)CC3)c2)c(-c2cn(C)c(=O)c3[nH]ccc23)c1 [Compound I-8] | < 50 nM | < 500 nM | 50 to 500 nM | – |
| CCS(=O)(=O)Nc1ccc(Oc2cccc(N3CC(N4CCN(c5ncc(C(=O)N[C@H]6C(C)(C)[C@H](Oc7ccc(C#N)c(Cl)c7)C6(C)C)cn5)CC4)C3)c2)c(-c2cn(C)c(=O)c3[nH]ccc23)c1 [Compound I-75] | 50 to 500 nM | < 500 nM | 50 to 500 nM | – |
| Cn1cc(-c2cc(C(C)(C)O)ccc2Oc2cccc(OCCN3CCN(c4ncc(C(=O)N[C@H]5C(C)(C)[C@H](Oc6ccc(C#N)c(Cl)c6)C5(C)C)cn4)CC3)c2F)c2cc[nH]c2c1=O [Compound I-99] | < 50 nM | < 500 nM | 500 to 2500 nM | – |
| Cn1cc(-c2cc(C(C)(C)O)ccc2Oc2cccc(N3CC(N4CCN(c5ncc(C(=O)N[C@H]6C(C)(C)[C@H](Oc7ccc(C#N)c(Cl)c7)C6(C)C)cn5)CC4)C3)c2F)c2cc[nH]c2c1=O [Compound I-92, N-((1r, 3r)-3-(3-chloro-4-cyanophenoxy)-2,2,4,4-tetramethylcyclobutyl)-2-(4-(1-(2-fluoro-3-(4-(2-hydroxypropan-2-yl)-2-(6-methyl-7-oxo-6,7-dihydro-1H-pyrrolo[2,3-c]pyridin-4-yl)phenoxy)phenyl)azetidin-3-yl)piperazin-1-yl)pyrimidine-5-carboxamide] | 50 to 500 nM | < 500 nM | 50 to 500 nM | – |
| Cn1cc(-c2cc(C(C)(C)O)ccc2Oc2cccc(CCCN3CCN(c4ncc(C(=O)N[C@H]5C(C)(C)[C@H](Oc6ccc(C#N)c(Cl)c6)C5(C)C)cn4)CC3)c2)c2cc[nH]c2c1=O [Compound I-110] | < 50 nM | < 500 nM | 500 to 2500 nM | – |
| CC(C)N(CC1CCN(c2ncc(C(=O)N[C@H]3C(C)(C)[C@H](Oc4ccc(C#N)c(Cl)c4)C3(C)C)cn2)CC1)[C@H]1C[C@H](Oc2cccc(Oc3ccc(C(C)(C)O)cc3-c3cn(C)c(=O)c4[nH]ccc34)c2F)C1 [Compound I-214] | < 50 nM | < 500 nM | < 50 nM | – |
| Cn1cc(-c2ccccc2Oc2cccc(OCCN3CCN(c4ncc(C(=O)N[C@H]5C(C)(C)[C@H](Oc6ccc(C#N)c(Cl)c6)C5(C)C)cn4)CC3)c2)c2cc[nH]c2c1=O [Compound I-98] | > 2500 nM | < 500 nM | > 2500 nM | – |
| CN(c1ccc(Oc2cccc(N3CC(N4CCN(c5ncc(C(=O)N[C@H]6C(C)(C)[C@H](Oc7ccc(C#N)c(Cl)c7)C6(C)C)cn5)CC4)C3)c2)c(-c2cn(C)c(=O)c3[nH]ccc23)c1)S(=O)(=O)C1CC1 [Compound I-88, N-((1r, 3r)-3-(3-chloro-4-cyanophenoxy)-2,2,4,4-tetramethylcyclobutyl)-2-(4-(1-(3-(2-(6-methyl-7-oxo-6,7-dihydro-1H-pyrrolo[2,3-c]pyridin-4-yl)-4-(N-methylcyclopropanesulfonamido)phenoxy)phenyl)azetidin-3-yl)piperazin-1-yl)pyrimidine-5-carboxamide] | 50 to 500 nM | < 500 nM | 500 to 2500 nM | – |
| Cn1cc(-c2cc(C(C)(C)O)ccc2Oc2cccc(OCCC3CCN(c4ncc(C(=O)N[C@H]5C(C)(C)[C@H](Oc6ccc(C#N)c(Cl)c6)C5(C)C)cn4)CC3)c2)c2cc[nH]c2c1=O [Compound I-156] | 50 to 500 nM | – | 500 to 2500 nM | > 3000 nM |
| Cn1cc(-c2cc(N)ccc2Oc2cccc(OCCOC3CCN(c4ncc(C(=O)N[C@H]5C(C)(C)[C@H](Oc6ccc(C#N)c(Cl)c6)C5(C)C)cn4)CC3)c2)c2cc[nH]c2c1=O [Compound I-62, 2-(4-(2-(3-(4-amino-2-(6-methyl-7-oxo-6,7-dihydro-1H-pyrrolo[2,3-c]pyridin-4-yl)phenoxy)phenoxy)ethoxy)piperidin-1-yl)-N-((1r, 3r)-3-(3-chloro-4-cyanophenoxy)-2,2,4,4-tetramethylcyclobutyl)pyrimidine-5-carboxamide] | > 2500 nM | < 500 nM | > 2500 nM | – |
| Cn1cc(-c2ccccc2Oc2cccc(N3CC(N4CCN(c5ncc(C(=O)N[C@H]6C(C)(C)[C@H](Oc7ccc(C#N)c(Cl)c7)C6(C)C)cn5)CC4)C3)c2)c2cc[nH]c2c1=O [Compound I-90, N-((1r, 3r)-3-(3-chloro-4-cyanophenoxy)-2,2,4,4-tetramethylcyclobutyl)-2-(4-(1-(3-(2-(6-methyl-7-oxo-6,7-dihydro-1H-pyrrolo[2,3-c]pyridin-4-yl)phenoxy)phenyl)azetidin-3-yl)piperazin-1-yl)pyrimidine-5-carboxamide] | > 2500 nM | < 500 nM | > 2500 nM | – |
| CCS(=O)(=O)Nc1ccc(Oc2cccc(OCCOCCOCCOC3CCN(c4ncc(C(=O)N[C@H]5C(C)(C)[C@H](Oc6ccc(C#N)c(Cl)c6)C5(C)C)cn4)CC3)c2)c(-c2cn(C)c(=O)c3[nH]ccc23)c1 [Compound I-7] | < 50 nM | < 500 nM | 500 to 2500 nM | – |
